Experiment [1] has as its target CDK9/Cyclin K (Homo sapiens) (UniProt P50750+O75909). In words: Selectivity interaction (LanthaScreen Eu Kinase Binding Assay) EUB0001632a CDK9. Conditions: at 10 µM. It is filed as protein-complex assay.
Experiment [2] has as its target Mitogen-activated protein kinase kinase kinase kinase 5 (Homo sapiens) (UniProt Q9Y4K4). Put plainly: Selectivity interaction (Kinase panel (Z-LYTE Assay)) EUB0001632a MAP4K5. To be noted: at 10 µM.
In experiment [3] the target is Serine/threonine-protein kinase PAK 3 (Homo sapiens) (UniProt O75914). In words: Selectivity interaction (Kinase panel (Z-LYTE Assay)) EUB0001632a PAK3. Conditions: at 10 µM.
The target in experiment [4] is Cyclin-dependent kinase-like 3 (Homo sapiens) (UniProt Q8IVW4). In words: Selectivity interaction (KinomeScan (DiscoverX)) EUB0000595a CDKL3. To be noted: at 10 µM.
For experiment [5], the target named is Wee1-like protein kinase 2 (Homo sapiens) (UniProt P0C1S8). In words: Selectivity interaction (KinomeScan (DiscoverX)) EUB0000595a WEE2. To be noted: at 10 µM.
Wee1-like protein kinase 2 (Homo sapiens), sequence (P0C1S8 whole entry, looked up): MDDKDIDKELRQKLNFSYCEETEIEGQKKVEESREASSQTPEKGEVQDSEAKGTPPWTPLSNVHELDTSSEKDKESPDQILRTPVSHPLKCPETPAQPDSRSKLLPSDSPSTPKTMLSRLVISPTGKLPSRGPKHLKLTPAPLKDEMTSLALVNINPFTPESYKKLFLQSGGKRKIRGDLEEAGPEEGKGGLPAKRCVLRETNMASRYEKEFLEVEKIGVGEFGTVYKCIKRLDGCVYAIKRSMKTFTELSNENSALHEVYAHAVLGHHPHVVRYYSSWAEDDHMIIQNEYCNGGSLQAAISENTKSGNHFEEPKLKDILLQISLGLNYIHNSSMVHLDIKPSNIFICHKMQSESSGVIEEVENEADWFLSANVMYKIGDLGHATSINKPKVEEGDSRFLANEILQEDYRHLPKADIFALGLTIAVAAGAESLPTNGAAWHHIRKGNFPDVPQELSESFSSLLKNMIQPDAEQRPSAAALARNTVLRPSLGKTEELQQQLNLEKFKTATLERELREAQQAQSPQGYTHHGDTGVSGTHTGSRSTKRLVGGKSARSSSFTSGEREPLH
A further experiment deals with Activated CDC42 kinase 1 (Homo sapiens, UniProt Q07912). In words: Selectivity interaction (ActivX KiNativ screen (ex vivo kinase selectivity in human PBMCs)) EUB0001619a TNK2. It is filed as cell-based. Conditions: PBMC, at 1 µM.
Activated CDC42 kinase 1, sequence (Q07912 whole entry, looked up): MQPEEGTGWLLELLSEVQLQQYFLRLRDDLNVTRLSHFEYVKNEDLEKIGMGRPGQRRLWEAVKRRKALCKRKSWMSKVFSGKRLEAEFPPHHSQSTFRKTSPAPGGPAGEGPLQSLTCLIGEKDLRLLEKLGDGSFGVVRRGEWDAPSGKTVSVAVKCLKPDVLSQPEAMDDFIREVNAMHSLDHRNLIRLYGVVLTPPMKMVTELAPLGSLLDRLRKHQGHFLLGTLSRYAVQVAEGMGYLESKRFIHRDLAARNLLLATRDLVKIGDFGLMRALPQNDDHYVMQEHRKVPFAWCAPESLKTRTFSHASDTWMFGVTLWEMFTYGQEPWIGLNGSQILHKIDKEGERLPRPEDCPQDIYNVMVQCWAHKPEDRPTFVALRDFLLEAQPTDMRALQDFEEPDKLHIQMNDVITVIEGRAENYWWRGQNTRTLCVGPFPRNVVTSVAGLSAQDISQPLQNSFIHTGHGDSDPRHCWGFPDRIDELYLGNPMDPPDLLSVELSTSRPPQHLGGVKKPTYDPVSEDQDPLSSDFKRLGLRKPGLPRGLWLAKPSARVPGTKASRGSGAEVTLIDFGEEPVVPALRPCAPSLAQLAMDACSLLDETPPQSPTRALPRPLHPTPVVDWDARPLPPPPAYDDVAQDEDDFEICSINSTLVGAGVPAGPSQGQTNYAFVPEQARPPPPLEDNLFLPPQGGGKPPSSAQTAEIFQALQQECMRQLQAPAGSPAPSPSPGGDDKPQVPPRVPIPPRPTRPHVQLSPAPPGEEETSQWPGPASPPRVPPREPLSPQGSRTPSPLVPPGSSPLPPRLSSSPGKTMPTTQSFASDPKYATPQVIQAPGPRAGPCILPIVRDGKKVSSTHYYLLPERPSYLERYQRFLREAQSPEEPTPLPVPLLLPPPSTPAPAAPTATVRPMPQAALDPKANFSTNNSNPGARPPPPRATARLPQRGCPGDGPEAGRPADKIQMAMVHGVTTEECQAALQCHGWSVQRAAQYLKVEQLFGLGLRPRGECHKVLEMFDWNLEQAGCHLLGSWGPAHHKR
Experiment [6] has as its target Serine/threonine-protein kinase WNK4 (Homo sapiens) (UniProt Q96J92). In words: Selectivity interaction (ActivX KiNativ screen (ex vivo kinase selectivity in human PBMCs)) EUB0001619a WNK4. The experiment is classed as cell-based. To be noted: PBMC, at 1 µM.
Experiment [7] addresses Tyrosine-protein kinase JAK2 (Homo sapiens, UniProt O60674). Conditions: at 10 µM.
The target in experiment [8] is T1, Activin receptor type-1B (Homo sapiens) (UniProt P36896).
T1 sequence (whole entry): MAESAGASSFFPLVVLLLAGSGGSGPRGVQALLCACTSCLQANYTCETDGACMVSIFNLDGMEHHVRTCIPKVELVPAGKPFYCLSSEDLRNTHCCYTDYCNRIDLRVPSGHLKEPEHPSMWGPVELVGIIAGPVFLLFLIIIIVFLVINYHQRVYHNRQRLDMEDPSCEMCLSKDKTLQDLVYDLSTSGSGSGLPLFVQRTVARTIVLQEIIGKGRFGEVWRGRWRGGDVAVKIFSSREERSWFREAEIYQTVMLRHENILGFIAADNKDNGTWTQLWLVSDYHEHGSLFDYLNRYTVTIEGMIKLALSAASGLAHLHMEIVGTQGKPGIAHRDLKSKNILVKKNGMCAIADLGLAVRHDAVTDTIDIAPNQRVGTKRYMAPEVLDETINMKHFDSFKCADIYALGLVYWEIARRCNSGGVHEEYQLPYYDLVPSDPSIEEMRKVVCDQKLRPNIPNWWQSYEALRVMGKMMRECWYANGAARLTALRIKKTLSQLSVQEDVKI
In words: Selectivity interaction (KinomeScan (DiscoverX)) EUB0000607a ACVR1B. Conditions: at 10 µM.

For experiment [9], the target named is Serine/threonine-protein kinase N1 (Homo sapiens, UniProt Q16512). In words: Selectivity interaction (SelectScreen profiling (Invitrogen)) EUB0000607a PKN1. Conditions: at 2 µM.
Serine/threonine-protein kinase N1, sequence (Q16512 2-942 limits assumed): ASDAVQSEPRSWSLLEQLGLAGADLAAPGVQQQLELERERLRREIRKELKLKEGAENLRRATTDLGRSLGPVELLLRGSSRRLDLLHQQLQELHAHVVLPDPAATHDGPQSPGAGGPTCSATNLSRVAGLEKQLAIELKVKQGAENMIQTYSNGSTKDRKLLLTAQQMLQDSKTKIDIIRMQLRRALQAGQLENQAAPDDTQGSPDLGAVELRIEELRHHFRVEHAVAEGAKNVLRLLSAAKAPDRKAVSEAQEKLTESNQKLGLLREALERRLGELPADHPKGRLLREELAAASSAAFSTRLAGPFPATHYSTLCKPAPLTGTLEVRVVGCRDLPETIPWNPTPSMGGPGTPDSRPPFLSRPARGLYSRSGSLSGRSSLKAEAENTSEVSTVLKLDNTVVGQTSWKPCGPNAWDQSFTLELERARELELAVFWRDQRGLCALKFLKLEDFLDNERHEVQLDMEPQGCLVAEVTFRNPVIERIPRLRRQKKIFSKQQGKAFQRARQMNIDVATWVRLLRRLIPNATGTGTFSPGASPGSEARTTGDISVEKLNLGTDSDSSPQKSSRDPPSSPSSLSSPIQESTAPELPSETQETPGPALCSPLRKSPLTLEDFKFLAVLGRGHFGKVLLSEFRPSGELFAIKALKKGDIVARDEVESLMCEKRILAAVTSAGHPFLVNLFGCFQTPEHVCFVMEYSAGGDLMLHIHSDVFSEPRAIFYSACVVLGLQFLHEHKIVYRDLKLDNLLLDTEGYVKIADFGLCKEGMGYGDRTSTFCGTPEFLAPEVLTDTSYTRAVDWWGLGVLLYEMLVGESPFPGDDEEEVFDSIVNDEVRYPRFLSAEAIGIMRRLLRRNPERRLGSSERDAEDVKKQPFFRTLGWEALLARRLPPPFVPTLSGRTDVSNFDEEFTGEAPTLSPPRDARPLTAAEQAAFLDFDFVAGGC
Experiment [10] addresses Ribosomal protein S6 kinase alpha-6 (Homo sapiens, UniProt Q9UK32). Conditions: at 10 µM.
Experiment [11] has as its target T2, Interleukin-1 receptor-associated kinase 3 (Homo sapiens) (UniProt Q9Y616).
T2 sequence (whole entry): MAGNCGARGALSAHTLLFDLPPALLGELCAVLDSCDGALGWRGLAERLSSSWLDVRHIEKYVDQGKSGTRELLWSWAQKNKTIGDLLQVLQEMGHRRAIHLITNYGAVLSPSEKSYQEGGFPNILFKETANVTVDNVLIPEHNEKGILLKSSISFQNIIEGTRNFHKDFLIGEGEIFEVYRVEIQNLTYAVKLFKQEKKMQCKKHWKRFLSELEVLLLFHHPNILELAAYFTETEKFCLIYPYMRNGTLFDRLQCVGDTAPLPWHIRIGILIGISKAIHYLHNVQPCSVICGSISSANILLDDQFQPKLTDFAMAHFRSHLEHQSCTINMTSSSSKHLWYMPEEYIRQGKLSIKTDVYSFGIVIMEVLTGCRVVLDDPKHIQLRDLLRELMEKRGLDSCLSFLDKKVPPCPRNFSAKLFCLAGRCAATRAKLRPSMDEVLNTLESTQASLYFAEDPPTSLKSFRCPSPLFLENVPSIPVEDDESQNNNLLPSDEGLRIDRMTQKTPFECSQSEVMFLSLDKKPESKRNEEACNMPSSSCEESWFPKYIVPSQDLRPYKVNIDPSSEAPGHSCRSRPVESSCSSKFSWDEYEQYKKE
Put plainly: Selectivity interaction (ActivX KiNativ screen (kinase selectivity in THP-1 cell lysates)) EUB0000639a IRAK3. To be noted: lysate, at 1 µM. It is filed as subcellular.

Experiment [12] deals with T3, Mitogen-activated protein kinase kinase kinase 12 (Homo sapiens) (UniProt Q12852).
T3 sequence (whole entry): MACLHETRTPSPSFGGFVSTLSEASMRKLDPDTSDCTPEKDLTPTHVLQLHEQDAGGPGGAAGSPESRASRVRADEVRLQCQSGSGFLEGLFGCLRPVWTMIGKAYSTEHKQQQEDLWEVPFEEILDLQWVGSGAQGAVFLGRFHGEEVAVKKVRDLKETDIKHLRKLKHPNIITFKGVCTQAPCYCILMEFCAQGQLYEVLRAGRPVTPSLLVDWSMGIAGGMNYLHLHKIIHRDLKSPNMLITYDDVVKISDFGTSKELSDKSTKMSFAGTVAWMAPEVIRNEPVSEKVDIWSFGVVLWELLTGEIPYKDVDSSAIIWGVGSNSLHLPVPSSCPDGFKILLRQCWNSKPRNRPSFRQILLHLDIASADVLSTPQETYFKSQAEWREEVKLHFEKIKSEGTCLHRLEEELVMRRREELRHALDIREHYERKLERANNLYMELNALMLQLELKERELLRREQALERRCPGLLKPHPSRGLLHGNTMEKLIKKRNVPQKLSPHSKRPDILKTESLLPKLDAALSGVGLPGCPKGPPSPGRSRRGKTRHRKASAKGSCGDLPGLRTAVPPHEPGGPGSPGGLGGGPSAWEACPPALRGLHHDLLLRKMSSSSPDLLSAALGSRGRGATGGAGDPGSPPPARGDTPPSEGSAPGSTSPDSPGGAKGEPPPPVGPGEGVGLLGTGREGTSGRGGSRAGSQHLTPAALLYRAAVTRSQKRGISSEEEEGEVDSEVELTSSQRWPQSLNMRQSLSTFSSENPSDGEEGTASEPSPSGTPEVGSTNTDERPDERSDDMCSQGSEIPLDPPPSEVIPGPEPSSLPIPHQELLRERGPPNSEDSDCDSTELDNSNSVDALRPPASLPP
In words: Selectivity interaction (KinomeScan (DiscoverX)) EUB0000045b MAP3K12.

The test system of experiment [13] is Tyrosine-protein kinase ABL1 (Homo sapiens), P00519 [T315I]. Put plainly: Selectivity interaction (KinomeScan (DiscoverX)) EUB0001049a ABL1. Conditions: at 1 µM.
The target of experiment [14] is Hepatocyte growth factor-like protein (Homo sapiens) (UniProt P26927). To be noted: at 1 µM.

Mitogen-activated protein kinase kinase kinase kinase 5 (Homo sapiens), sequence (Q9Y4K4 whole entry, looked up): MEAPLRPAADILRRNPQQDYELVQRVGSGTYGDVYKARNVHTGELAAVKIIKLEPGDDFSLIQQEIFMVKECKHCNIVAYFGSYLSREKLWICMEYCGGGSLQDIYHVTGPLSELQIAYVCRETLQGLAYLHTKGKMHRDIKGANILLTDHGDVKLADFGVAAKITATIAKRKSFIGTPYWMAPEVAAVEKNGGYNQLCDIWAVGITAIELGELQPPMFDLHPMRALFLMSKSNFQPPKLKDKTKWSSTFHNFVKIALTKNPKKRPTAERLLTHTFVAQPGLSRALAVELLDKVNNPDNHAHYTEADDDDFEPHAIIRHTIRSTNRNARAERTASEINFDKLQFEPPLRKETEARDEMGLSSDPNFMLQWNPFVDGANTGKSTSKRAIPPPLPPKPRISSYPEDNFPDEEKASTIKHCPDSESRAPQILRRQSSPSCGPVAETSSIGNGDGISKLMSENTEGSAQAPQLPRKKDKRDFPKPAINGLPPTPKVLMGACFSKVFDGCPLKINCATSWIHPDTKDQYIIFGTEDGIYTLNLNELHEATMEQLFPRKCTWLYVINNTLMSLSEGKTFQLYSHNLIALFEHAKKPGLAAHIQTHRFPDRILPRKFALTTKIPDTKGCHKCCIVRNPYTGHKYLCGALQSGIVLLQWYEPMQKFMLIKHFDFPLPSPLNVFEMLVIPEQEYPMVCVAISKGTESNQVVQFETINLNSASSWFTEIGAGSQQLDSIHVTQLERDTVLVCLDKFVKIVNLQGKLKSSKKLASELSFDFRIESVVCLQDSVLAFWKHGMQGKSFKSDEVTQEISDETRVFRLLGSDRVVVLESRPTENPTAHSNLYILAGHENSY
Serine/threonine-protein kinase WNK4 (Homo sapiens), sequence (Q96J92 whole entry): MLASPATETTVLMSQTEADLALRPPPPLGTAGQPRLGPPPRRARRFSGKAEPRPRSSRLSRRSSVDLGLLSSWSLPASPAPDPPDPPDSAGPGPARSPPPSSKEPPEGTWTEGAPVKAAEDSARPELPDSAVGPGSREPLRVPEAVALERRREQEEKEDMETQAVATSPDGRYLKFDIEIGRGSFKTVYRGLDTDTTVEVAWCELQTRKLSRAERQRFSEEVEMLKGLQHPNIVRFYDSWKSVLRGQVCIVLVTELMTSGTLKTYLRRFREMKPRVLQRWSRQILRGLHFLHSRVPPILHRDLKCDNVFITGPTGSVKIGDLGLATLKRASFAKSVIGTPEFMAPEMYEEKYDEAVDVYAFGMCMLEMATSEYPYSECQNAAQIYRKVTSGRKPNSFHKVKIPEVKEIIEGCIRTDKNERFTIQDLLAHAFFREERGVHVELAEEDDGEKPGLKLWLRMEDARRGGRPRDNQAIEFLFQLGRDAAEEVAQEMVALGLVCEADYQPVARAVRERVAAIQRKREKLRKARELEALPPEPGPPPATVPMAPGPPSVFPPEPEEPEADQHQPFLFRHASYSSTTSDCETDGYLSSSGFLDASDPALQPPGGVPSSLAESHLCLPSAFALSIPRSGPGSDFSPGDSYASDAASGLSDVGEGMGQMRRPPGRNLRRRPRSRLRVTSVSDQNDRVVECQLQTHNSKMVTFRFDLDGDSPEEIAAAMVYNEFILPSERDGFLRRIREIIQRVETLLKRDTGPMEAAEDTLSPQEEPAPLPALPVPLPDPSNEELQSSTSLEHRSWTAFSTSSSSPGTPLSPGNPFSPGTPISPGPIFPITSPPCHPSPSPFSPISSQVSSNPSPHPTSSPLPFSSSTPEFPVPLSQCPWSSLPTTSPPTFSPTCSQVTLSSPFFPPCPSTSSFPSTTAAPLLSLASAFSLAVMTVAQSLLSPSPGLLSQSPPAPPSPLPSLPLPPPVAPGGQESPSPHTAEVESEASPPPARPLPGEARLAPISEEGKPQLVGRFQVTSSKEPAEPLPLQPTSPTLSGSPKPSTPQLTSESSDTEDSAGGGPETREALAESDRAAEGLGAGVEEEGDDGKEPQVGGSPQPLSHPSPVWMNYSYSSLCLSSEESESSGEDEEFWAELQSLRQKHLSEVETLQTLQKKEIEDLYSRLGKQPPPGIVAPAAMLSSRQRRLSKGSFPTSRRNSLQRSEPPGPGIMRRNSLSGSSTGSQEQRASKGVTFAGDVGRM

Regarding `Cn1cc(-n2cnc3c(NCc4nc5cc(Cl)c(Cl)cc5[nH]4)nc(N4CCOCC4)nc32)cn1`, the % of inhibition in experiment [1] is -32.1%. In addition, the results for the % of control in experiment [2] and in experiment [3] were 3.28% and -20.7%, respectively.

Consider `COCC(=O)NC/C=C/c1ccc2ncnc(Nc3ccc(Oc4ccc(C)nc4)c(C)c3)c2c1` [CP-724714], for which the % of control in [4] was 100%; in experiment [5], 81%.

In the case of `N#Cc1cccc(-c2c[nH]c3ncnc(N4CCOCC4)c23)c1`, the % of inhibition on Activated CDC42 kinase 1 is 8%; in experiment [6], -1%.

`CCN(CC)CCCCNc1ncc2cc(-c3cc(OC)cc(OC)c3)c(NC(=O)NC(C)(C)C)nc2n1`: in [7], the % of control came out at 100%.

Turning to `CNC(=O)Nc1ccc(-c2nc(N3CC4CCC(C3)O4)c3cnn(C4CCC5(CC4)OCCO5)c3n2)cc1`, in [8], the % of control is 100%. For the same compound, the % of inhibition in experiment [9] amounted to 14%.

Turning to `Cc1cc([C@@H](C)Nc2ccccc2C(=O)O)c2nc(N3CCOCC3)cc(=O)n2c1` [AZD-6482], the % of control in [10] amounted to 71%.

In the case of `CC[C@@H]1[C@H](F)C(=O)N[C@@H]1COc1nccc2cc(C(N)=O)c(OC)cc12` [ZIMLOVISERTIB], the % of inhibition in [11] is 73%.

For `C=CC(=O)Nc1cc(-n2c(=O)ccc3cnc4ccc(-c5ccc(NS(C)(=O)=O)cc5)cc4c32)ccc1C`, the % of control in experiment [12] (at 1 µM) stood at 70%; in [12] (at 10 µM), 59%.

Turning to `COc1cc(Nc2nc(C)cc(-c3cnn4nc(OC)ccc34)n2)cc(C(F)(F)F)c1`, in experiment [13], the % of control came to 100%.

Regarding `Cc1ccc(-c2ccc3c(ccc4sc5c(c43)NC[C@@H](C)NC5=O)n2)cn1`, the % of inhibition in experiment [14] was found to be 6%.

These data come from ChEMBL document CHEMBL5465560, “Selectivity Literature for EUbOPEN Chemogenomic Library” (2024).
